The record followed here is patent US20260265238A1, “COMPOUNDS AND PHARMACEUTICAL COMPOSITIONS THAT DEGRADE SWI/SNF-RELATED MATRIX-ASSOCIATED ACTIN-DEPENDENT REGULATOR OF CHROMATIN SUBFAMILY A” (Plexium, Inc., priority 2023, published 2026).

Test [1] deals with T1, SMARCA4-HiBiT HeLa cells (protein which is expressed from the SMARCA4 gene) (Homo sapiens, UniProt P51532).
T1 construct: protein which is expressed from the SMARCA2 and SMARCA4 genes; host or cells: HeLa (SMARCA4-HiBiT engineered line)
T1 sequence (P51532 whole entry): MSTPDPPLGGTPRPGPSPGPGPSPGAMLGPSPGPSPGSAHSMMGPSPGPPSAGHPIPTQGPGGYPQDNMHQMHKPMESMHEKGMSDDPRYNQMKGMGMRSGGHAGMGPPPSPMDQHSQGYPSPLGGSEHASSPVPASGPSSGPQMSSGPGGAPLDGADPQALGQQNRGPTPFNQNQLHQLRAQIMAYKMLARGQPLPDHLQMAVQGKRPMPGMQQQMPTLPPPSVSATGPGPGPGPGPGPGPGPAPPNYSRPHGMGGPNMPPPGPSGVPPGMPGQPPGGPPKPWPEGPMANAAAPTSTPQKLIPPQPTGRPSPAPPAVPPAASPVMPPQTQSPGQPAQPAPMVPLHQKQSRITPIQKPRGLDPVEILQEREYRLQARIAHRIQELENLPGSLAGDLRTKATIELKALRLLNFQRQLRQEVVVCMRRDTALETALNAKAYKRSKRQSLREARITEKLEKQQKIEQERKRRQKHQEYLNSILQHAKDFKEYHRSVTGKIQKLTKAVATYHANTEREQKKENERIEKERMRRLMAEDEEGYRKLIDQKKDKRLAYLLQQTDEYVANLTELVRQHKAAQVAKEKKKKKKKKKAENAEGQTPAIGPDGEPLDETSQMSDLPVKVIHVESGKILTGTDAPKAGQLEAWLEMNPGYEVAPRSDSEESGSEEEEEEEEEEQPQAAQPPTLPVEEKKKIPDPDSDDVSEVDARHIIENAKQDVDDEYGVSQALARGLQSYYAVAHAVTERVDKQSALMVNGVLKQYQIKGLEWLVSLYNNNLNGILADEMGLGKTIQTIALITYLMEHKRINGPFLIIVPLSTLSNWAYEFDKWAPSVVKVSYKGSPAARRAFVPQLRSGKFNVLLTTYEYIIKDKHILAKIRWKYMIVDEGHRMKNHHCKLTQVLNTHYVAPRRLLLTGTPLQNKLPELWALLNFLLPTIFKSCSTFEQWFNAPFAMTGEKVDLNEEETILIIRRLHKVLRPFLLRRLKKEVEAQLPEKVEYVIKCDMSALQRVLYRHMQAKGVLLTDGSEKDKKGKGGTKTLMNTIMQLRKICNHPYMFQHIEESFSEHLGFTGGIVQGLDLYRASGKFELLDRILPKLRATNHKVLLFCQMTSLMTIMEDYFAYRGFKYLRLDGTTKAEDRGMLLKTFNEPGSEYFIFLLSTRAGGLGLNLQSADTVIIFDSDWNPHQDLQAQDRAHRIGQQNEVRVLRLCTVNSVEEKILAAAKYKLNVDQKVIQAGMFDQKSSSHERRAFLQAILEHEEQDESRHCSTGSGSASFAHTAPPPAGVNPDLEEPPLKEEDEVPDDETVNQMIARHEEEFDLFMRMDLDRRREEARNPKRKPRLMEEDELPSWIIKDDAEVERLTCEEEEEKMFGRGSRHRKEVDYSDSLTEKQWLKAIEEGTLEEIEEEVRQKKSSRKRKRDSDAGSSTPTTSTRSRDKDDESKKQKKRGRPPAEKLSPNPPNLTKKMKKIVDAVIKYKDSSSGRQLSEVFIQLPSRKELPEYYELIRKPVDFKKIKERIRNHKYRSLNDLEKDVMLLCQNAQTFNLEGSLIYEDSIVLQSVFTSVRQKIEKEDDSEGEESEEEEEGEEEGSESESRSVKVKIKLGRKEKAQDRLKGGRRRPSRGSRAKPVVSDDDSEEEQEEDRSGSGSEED
Description: SMARCA4 degradation assay (HiBiT-fusion HeLa cell line, 24 h, luminescence). It is filed as cell-based. On the procedure:
(§1) SMARCA2 and SMARCA4 Degradation Assay
(§2) Degradation of protein which is expressed from the SMARCA2 and SMARCA4 genes was monitored using engineered HiBiT-fusion HeLa cell lines from Promega. In brief, 384-well white opaque plates (Greiner) were seeded with SMARCA2-HiBiT or SMARCA4-HiBiT HeLa cells at 8,000 cells/well and incubated overnight at 37° C. to allow cell attachment. After overnight incubation, test compounds were added in a 10-point dilution series (typically 10 μM to 300 pM) using a TECAN D300e Digital Dispenser, and plates were subsequently incubated for 24 hours at 37° C. 24-hours post-treatment, protein levels were quantified with the addition of HiBiT lytic buffer, LgBiT protein, and HiBiT substrate, according to manufacturer's specifications. Plates were incubated on an orbital plate shaker for 10 minutes at room temperature. Resulting luminescent values were read out using a ClarioStar plate reader and used to construct dose-response curves and calculation of degradation DC50s (GraphPad Prism).
(§3) Activity of the tested compounds is provided in Table 4 below as follows: A=DC50<0.050 μM; B=0.05 μM<DC50<0.50 μM; C=<0.5 μM<DC50<5.0 μM; D=DC50>5.0 μM. For SMARCA2 and SMARCA4 degradation activity @1 μM, +++=>70%; ++=30-70%; +=<30%.

In test [2] the target is T2, SMARCA2-HiBiT HeLa cells (protein which is expressed from the SMARCA2 gene) (Homo sapiens, UniProt P51531).
T2 construct: protein which is expressed from the SMARCA2 and SMARCA4 genes; host or cells: HeLa (SMARCA2-HiBiT engineered line)
T2 sequence (P51531 whole entry): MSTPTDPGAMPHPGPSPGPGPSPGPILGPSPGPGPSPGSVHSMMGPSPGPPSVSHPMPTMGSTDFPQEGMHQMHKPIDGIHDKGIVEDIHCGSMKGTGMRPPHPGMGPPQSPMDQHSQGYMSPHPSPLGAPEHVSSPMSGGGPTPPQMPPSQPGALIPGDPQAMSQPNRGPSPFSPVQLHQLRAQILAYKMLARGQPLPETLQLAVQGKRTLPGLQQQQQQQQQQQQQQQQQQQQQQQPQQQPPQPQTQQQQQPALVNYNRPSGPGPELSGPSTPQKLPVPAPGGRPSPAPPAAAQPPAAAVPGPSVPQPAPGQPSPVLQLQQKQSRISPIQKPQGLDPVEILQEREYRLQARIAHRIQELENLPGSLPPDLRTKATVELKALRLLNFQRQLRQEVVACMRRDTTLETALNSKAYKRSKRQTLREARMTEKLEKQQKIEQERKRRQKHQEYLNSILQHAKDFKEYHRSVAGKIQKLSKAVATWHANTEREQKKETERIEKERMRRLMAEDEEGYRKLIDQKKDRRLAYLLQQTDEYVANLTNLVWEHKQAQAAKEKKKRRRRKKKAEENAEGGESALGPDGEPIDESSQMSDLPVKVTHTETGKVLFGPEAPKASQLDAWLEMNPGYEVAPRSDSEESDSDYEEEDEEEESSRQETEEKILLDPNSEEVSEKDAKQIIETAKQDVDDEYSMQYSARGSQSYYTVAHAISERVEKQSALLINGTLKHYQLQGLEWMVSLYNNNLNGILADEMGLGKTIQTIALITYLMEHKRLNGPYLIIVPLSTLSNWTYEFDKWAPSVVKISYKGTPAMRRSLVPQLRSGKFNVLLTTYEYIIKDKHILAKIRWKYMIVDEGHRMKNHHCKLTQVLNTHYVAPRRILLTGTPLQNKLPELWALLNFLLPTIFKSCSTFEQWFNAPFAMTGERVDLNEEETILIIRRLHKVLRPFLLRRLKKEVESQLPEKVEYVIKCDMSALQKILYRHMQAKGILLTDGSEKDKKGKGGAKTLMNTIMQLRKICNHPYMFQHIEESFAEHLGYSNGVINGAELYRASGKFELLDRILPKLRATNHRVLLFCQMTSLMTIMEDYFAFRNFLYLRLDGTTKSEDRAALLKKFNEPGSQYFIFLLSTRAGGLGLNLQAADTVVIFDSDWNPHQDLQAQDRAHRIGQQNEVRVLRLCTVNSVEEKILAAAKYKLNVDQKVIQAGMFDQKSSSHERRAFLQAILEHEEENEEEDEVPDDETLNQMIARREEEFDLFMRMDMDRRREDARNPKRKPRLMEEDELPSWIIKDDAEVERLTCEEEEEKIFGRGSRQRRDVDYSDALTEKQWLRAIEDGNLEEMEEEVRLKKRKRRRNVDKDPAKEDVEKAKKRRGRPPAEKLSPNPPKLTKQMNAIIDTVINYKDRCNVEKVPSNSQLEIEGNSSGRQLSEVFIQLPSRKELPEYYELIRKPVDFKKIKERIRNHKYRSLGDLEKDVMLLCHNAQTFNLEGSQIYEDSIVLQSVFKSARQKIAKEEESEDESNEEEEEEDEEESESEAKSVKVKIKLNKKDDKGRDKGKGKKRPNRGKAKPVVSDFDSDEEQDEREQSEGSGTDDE
Description: SMARCA2 degradation assay (HiBiT-fusion HeLa cell line, 24 h, luminescence). It is filed as cell-based. The procedure:
as §1, §2, §3

`COCC#Cc1nc(N2CCN(c3cc(-c4ccccc4O)nnc3N)CC[C@H]2C)ccc1C#N` [Compound P-400, 6-{(R)-4-[3-amino-6-(o-hydroxyphenyl)-4-pyridazinyl]-7-methyl-1,4-diazepan-1-yl}-2-(3-methoxy-1-propynyl)nicotinonitrile]: the figures for the DC50 in test [1] and in test [2] were greater than 5000 nM and 500 to 5000 nM, respectively.

Consider `Nc1nnc(-c2ccccc2O)cc1N1CCN(c2ccnc(C#CCNC(=O)c3cnc4ccccn34)n2)CC1` [Compound P-66, N-(3-(4-(4-(3-amino-6-(2-hydroxyphenyl)pyridazin-4-yl)piperazin-1-yl)pyrimidin-2-yl)prop-2-yn-1-yl)imidazo[1,2-a]pyridine-3-carboxamide], for which the DC50 in test [1] and in test [2] was 50 to 500 nM each time. In test [1] (@ 1 μM), the inhibition at 1 µM was in the range of 30 to 70%. For the same compound, the “SMARCA2 % Degradation @ 1 μM” value in test [2] (@ 1 μM) is “++ (++=30-70%)”.

In the case of `CCNC(=O)NCC#Cc1nccc(N2CCCN(c3cc(-c4ccccc4O)nnc3N)CC2)n1` [Compound P-326, 0-[6-amino-5-(4-{2-[3-(3-ethylureido)-1-propynyl]-4-pyrimidinyl}-1,4-diazepan-1-yl)-3-pyridazinyl]phenol], the DC50 in test [1] and in test [2] was 500 to 5000 nM in each case. In test [1] (@ 1 μM), this compound returned an inhibition at 1 µM of less than 30%. Also, in test [2] (@ 1 μM), the “SMARCA2 % Degradation @ 1 μM” value is listed as “++ (++=30-70%)”.

Consider `Cc1nc(C)n(CC#Cc2nccc(N3CCN(c4cc(-c5ccccc5O)nnc4N)CC[C@H]3C)n2)c1C` [Compound P-185, o-{5-[(R)-5-methyl-4-{2-[3-(2,4,5-trimethyl-1-imidazolyl)-1-propynyl]-4-pyrimidinyl}-1,4-diazepan-1-y1]-6-amino-3-pyridaziny1} phenol], for which the DC50 in test [1] and in test [2] was 50 to 500 nM each time. Besides, the inhibition at 1 µM in test [1] (@ 1 μM) is greater than 70%. In addition, in test [2] (@ 1 μM), the “SMARCA2 % Degradation @ 1 μM” value was “+++ (+++=>70%)”.

With `COC[C@@H](C)NCC#Cc1nccc(N2CCCN(c3cc(-c4ccccc4O)nnc3N)CC2)n1` [Compound P-277, 0-{5-[4-(2-{3-[(R)-2-methoxy-1-methylethylamino]-1-propynyl}-4-pyrimidinyl)-1,4-diazepan-1-yl]-6-amino-3-pyridazinyl}phenol], the DC50 in test [1] and in test [2] was 50 to 500 nM in each case. The compound also displayed an inhibition at 1 µM in test [1] (@ 1 μM) of 30 to 70%. In test [2] (@ 1 μM), the “SMARCA2 % Degradation @ 1 μM” value is “++ (++=30-70%)”.

`C[C@H]1CN(c2ccnc(C#CCNC(=O)c3cc4ncccn4n3)n2)C[C@H](C)N1c1cc(-c2ccccc2O)nnc1N` [Compound P-16, N-(3-(4-((3S,5S)-4-(3-amino-6-(2-hydroxyphenyl)pyridazin-4-y1)-3,5-dimethylpiperazin-1-yl)pyrimidin-2-yl)prop-2-yn-1-yl)pyrazolo[1,5-a]pyrimidine-2-carboxamide]: the DC50 in test [1] and in test [2] was 500 to 5000 nM each time. For the same compound, the inhibition at 1 µM in test [1] (@ 1 μM) was less than 30%. Moreover, the “SMARCA2 % Degradation @ 1 μM” value in test [2] (@ 1 μM) is on record as “+ (+=<30%)”.

In the case of `Nc1nnc(-c2ccccc2O)cc1N1CCN(c2ccnc(C#CCCNC(=O)c3cc4ncccn4n3)n2)CC1` [Compound P-94, N-(4-(4-(4-(3-amino-6-(2-hydroxyphenyl)pyridazin-4-yl)piperazin-1-yl)pyrimidin-2-yl)but-3-yn-1-yl)pyrazolo[1,5-a]pyrimidine-2-carboxamide], the DC50 in test [1] and in test [2] was 50 to 500 nM throughout. Moreover, the inhibition at 1 µM in test [1] (@ 1 μM) is less than 30%. For the same compound, the “SMARCA2 % Degradation @ 1 μM” value in test [2] (@ 1 μM) is recorded as “++ (++=30-70%)”.

Take `C/C=C/c1nccc(N2CCN(c3cc(-c4ccccc4O)nnc3N)CC[C@H]2C)n1` [Compound P-169, o-(5-{(R)-5-methyl-4-[2-(1-propenyl)-4-pyrimidinyl]-1,4-diazepan-1-yl}-6-amino-3-pyridazinyl)phenol]: the DC50 in test [1] and in test [2] was 50 to 500 nM throughout. In addition, in test [1] (@ 1 μM), the inhibition at 1 µM is greater than 70%. In addition, the “SMARCA2 % Degradation @ 1 μM” value in test [2] (@ 1 μM) is given as “+++ (+++=>70%)”.

As for `N#CC1CN(CC#Cc2nccc(N3CCCN(c4cc(-c5ccccc5O)nnc4N)CC3)n2)CCO1` (stereo not shown) [Compound P-310, 4-[3-(4-{4-[3-amino-6-(o-hydroxyphenyl)-4-pyridazinyl]-1,4-diazepan-1-y1}-2-pyrimidinyl)-2-propynyl]-2-morpholinecarbonitrile], the DC50 in test [1] and in test [2] was 50 to 500 nM in each case. Moreover, the inhibition at 1 µM in test [1] (@ 1 μM) was in the range of 30 to 70%. In test [2] (@ 1 μM), the “SMARCA2 % Degradation @ 1 μM” value is “++ (++=30-70%)”.

In the case of `CC1CN(c2ccnc(C#CCN)n2)CCN(c2cc(-c3ccccc3O)nnc2N)C1` (stereo not shown) [Compound P-39, 2-(6-amino-5-(4-(2-(3-aminoprop-1-yn-1-yl)pyrimidin-4-yl)-6-methyl-1,4-diazepan-1-yl)pyridazin-3-yl)phenol], the DC50 in test [1] and in test [2] was 500 to 5000 nM throughout. In test [1] (@ 1 μM), this compound had an inhibition at 1 µM of less than 30%. In test [2] (@ 1 μM), the “SMARCA2 % Degradation @ 1 μM” value is “+ (+=<30%)”.

Take `C[C@@H]1CCN(c2cc(-c3ccccc3O)nnc2N)CCN1c1ccnc(C#CCN2CCCC2=O)c1` [Compound P-390, 1-[3-(4-{ (R)-4-[3-amino-6-(o-hydroxyphenyl)-4-pyridaziny1]-7-methyl-1,4-diazepan-1-yl}-2-pyridyl)-2-propynyl]-2-pyrrolidinone]: the DC50 in test [1] and in test [2] was 50 to 500 nM in each case. In addition, in test [1] (1 μM), the inhibition at 1 µM was greater than 70%. The “SMARCA2 % Degradation @ 1 μM” value in test [2] (1 μM) was “+++ (+++=>70%)”.

As for `CC(C)(C)OC(=O)N1CCN(CC#Cc2nccc(N3CCCN(c4cc(-c5ccccc5O)nnc4N)CC3)n2)CC1` [Compound P-143, tert-butyl 4-(3-(4-(4-(3-amino-6-(2-hydroxyphenyl)pyridazin-4-yl)-1,4-diazepan-1-yl)pyrimidin-2-yl)prop-2-yn-1-yl)piperazine-1-carboxylate], the half-maximal degradation concentration (DC50) in test [1] and in test [2] was 50 to 500 nM in each case. In addition, the inhibition at 1 µM in test [1] (@ 1 μM) lay in the range of 30 to 70%. For the same compound, the “SMARCA2 % Degradation @ 1 μM” value in test [2] (@ 1 μM) is “+++ (+++=>70%)”.

Consider `CC(=O)N(C)C/C=C/c1nccc(N2CCN(c3cc(-c4ccccc4O)nnc3N)CC[C@H]2C)n1` [Compound P-153, N-[3-(4-{(R)-4-[3-amino-6-(o-hydroxyphenyl)-4-pyridazinyl]-7-methyl-1,4-diazepan-1-yl}-2-pyrimidinyl)-2-propenyl]-N-methylacetamide], for which the 50% degradation concentration (DC50) in test [1] and in test [2] was 50 to 500 nM throughout. Further, in test [1] (@ 1 μM), the inhibition at 1 µM lay in the range of 30 to 70%. The “SMARCA2 % Degradation @ 1 μM” value in test [2] (@ 1 μM) was “++ (++=30-70%)”.

On to `Cc1nccn1CC#Cc1nccc(N2CCN(c3cc(-c4ccccc4O)nnc3N)CC[C@H]2C)n1` [Compound P-186, o-{5-[(R)-5-methyl-4-{2-[3-(2-methyl-1-imidazolyl)-1-propynyl]-4-pyrimidinyl}-1,4-diazepan-1-yl]-6-amino-3-pyridazinyl}phenol], for which the DC50 in test [1] and in test [2] was 50 to 500 nM throughout. For the same compound, in test [1] (@ 1 μM), the inhibition at 1 µM lay within 30 to 70%. In addition, the “SMARCA2 % Degradation @ 1 μM” value in test [2] (@ 1 μM) was “+++ (+++=>70%)”.

Consider `C[C@H](O)C#Cc1nccc(N2CCCN(c3cc(-c4ccccc4O)nnc3N)CC2)n1` [Compound P-321, 0-[5-(4-{2-[(S)-3-hydroxy-1-butynyl]-4-pyrimidinyl}-1,4-diazepan-1-yl)-6-amino-3-pyridazinyl]phenol], for which the DC50 in test [1] and in test [2] was 50 to 500 nM throughout. In test [1] (@ 1 μM), this compound registered an inhibition at 1 µM of 30 to 70%. In addition, the “SMARCA2 % Degradation @ 1 μM” value in test [2] (@ 1 μM) is given as “++ (++=30-70%)”.

Turning to `CC1CCN(c2ccnc(C#CCNC(=O)c3cc4ncccn4n3)n2)CCN1c1cc(-c2ccccc2O)nnc1N` (stereo not shown) [Compound P-19, N-(3-(4-(4-(3-amino-6-(2-hydroxyphenyl)pyridazin-4-yl)-5-methyl-1,4-diazepan-1-yl)pyrimidin-2-yl)prop-2-yn-1-yl)pyrazolo[1,5-a]pyrimidine-2-carboxamide], the DC50 in test [1] and in test [2] was 500 to 5000 nM in each case. Further, in test [1] (@ 1 μM), the inhibition at 1 µM was in the range of 30 to 70%. In addition, the “SMARCA2 % Degradation @ 1 μM” value in test [2] (@ 1 μM) is listed as “++ (++=30-70%)”.

As to `Nc1nnc(-c2ccccc2O)cc1N1CCC2(CCN(c3ccnc(C#CCNC(=O)c4cc5ncccn5n4)n3)C2)CC1` [Compound P-32, N-(3-(4-(8-(3-amino-6-(2-hydroxyphenyl)pyridazin-4-yl)-2,8-diazaspiro[4.5]decan-2-yl)pyrimidin-2-yl)prop-2-yn-1-yl)pyrazolo[1,5-a]pyrimidine-2-carboxamide], the DC50 in test [1] and in test [2] was 50 to 500 nM in each case. The same compound yielded an inhibition at 1 µM in test [1] (@ 1 μM) of 30 to 70%. For the same compound, the “SMARCA2 % Degradation @ 1 μM” value in test [2] (@ 1 μM) is given as “++ (++=30-70%)”.

With `CC1(NCC#Cc2nccc(N3CCCN(c4cc(-c5ccccc5O)nnc4N)CC3)n2)COC1` [Compound P-278, 0-[6-amino-5-(4-{2-[3-(3-methyl-3-oxetanylamino)-1-propynyl]-4-pyrimidinyl}-1,4-diazepan-1-yl)-3-pyridazinyl]phenol], the DC50 in test [1] and in test [2] was 50 to 500 nM each time. This compound also gave an inhibition at 1 µM in test [1] (@ 1 μM) of 30 to 70%. Also, the “SMARCA2 % Degradation @ 1 μM” value in test [2] (@ 1 μM) is reported as “++ (++=30-70%)”.
